Results reported in PubChem BioAssay (NCI).
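Interpolation was linear, between the two tested concentrations surrounding the appropriate level; five concentrations were tested over 48 hours in 96-well plates. TGI denotes the concentration required for complete inhibition of growth.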

What was measured:
Assay in all cases: DTP human tumour cell line panel, 48 h
LOX IMVI melanoma = tested on: LOX IMVI melanoma
SN12C renal = tested on: SN12C renal
OVCAR-3 ovarian = tested on: OVCAR-3 ovarian
SK-MEL-2 melanoma = tested on: SK-MEL-2 melanoma
MDA-MB-435 = tested on: MDA-MB-435
KM12 colon = tested on: KM12 colon
RXF 393 renal = tested on: RXF 393 renal
RPMI-8226 leukemia = tested on: RPMI-8226 leukemia
NCI-H226 lung = tested on: NCI-H226 lung
SW-620 colon = tested on: SW-620 colon
HS 578T breast = tested on: HS 578T breast
COLO 205 colon = tested on: COLO 205 colon
SK-OV-3 ovarian = tested on: SK-OV-3 ovarian
SK-MEL-5 melanoma = tested on: SK-MEL-5 melanoma
SF-268 CNS = tested on: SF-268 CNS
SF-539 CNS = tested on: SF-539 CNS
HCT-15 colon = tested on: HCT-15 colon
BT-549 breast = tested on: BT-549 breast
NCI-H23 lung = tested on: NCI-H23 lung
DU-145 prostate = tested on: DU-145 prostate

Structure (SMILES) | TGI (LOX IMVI melanoma) [µM] | TGI (SN12C renal) [µM] | TGI (OVCAR-3 ovarian) [µM] | TGI (SK-MEL-2 melanoma) [µM] | TGI (MDA-MB-435) [µM] | TGI (KM12 colon) [µM] | TGI (RXF 393 renal) [µM] | TGI (RPMI-8226 leukemia) [µM] | TGI (NCI-H226 lung) [µM] | TGI (SW-620 colon) [µM] | TGI (HS 578T breast) [µM] | TGI (COLO 205 colon) [µM] | TGI (SK-OV-3 ovarian) [µM] | TGI (SK-MEL-5 melanoma) [µM] | TGI (SF-268 CNS) [µM] | TGI (SF-539 CNS) [µM] | TGI (HCT-15 colon) [µM] | TGI (BT-549 breast) [µM] | TGI (NCI-H23 lung) [µM] | TGI (DU-145 prostate) [µM]
CC1CC(=NC2CCCCC2)Nc2ccccc2N1Cc1ccccc1 (stereo not given) | 6.85 | 22.1 | 20.4 | 24.9 | 13.4 | 17 | 10.5 | > 32.7 | 27.8 | 23 | 19.7 | 17 | 23.4 | 6.77 | 17.3 | 22.5 | 19.1 | 18.7 | 22.3 | 17
COc1ccc(/C=C2\CCC(C)c3c2nc(N)c(C#N)c3-c2ccc(OC)c(OC)c2)cc1OC (stereo not given) | > 100 | > 100 | > 100 | > 100 | > 100 | > 100 | > 100 | > 100 | > 100 | > 100 | > 100 | 73.1 | > 100 | > 100 | > 100 | > 100 | > 100 | > 100 | > 100 | > 100
Cc1cccc(Nc2nc3ccccc3nc2NS(=O)(=O)c2ccccc2)c1 | > 100 | > 100 | 80 | 68.6 | > 100 | > 100 | > 100 | > 100 | > 100 | > 100 | > 100 | 30.7 | > 100 | > 100 | > 100 | > 100 | 65.9 | > 100 | 93.1 | > 100
O=[N+]([O-])C(C(Cl)=C(Cl)Cl)=C(n1nnc2ccccc21)n1nnc2ccccc21 | > 66.3 | 56.7 | 62.4 | > 65.3 | 58.4 | > 70.1 | 50 | 56.4 | > 73.9 | 16.6 | 85.6 | 51.9 | > 58 | > 67.8 | 70 | 53.3 | 61.7 | 99.6 | > 75.5 | > 100
CCN(CC)/[N+]([O-])=N/OCOC | > 100 | > 100 | > 100 | > 100 | > 100 | > 100 | > 100 | > 100 | > 100 | > 100 | > 100 | > 100 | > 100 | > 100 | > 100 | > 100 | > 100 | > 100 | > 100 | > 100
CC[C@@H]([C@H](O)c1ccccc1Cl)[N+](=O)[O-] | > 100 | > 100 | > 100 | > 100 | > 100 | > 100 | > 100 | > 100 | > 100 | > 100 | > 100 | > 100 | > 100 | > 100 | > 100 | > 100 | > 100 | > 100 | > 100 | > 100
O=C1N/C(=N\N=C\c2ccccc2)C2(CCCCC2)O1 | > 100 | > 100 | > 100 | > 100 | > 100 | > 100 | > 100 | > 100 | > 100 | > 100 | > 100 | > 100 | > 100 | > 100 | > 100 | > 100 | > 100 | > 100 | > 100 | > 100
COC(=O)c1sc2c(c1C(=O)OC)C(=NC(C)(C)C)SC2=NC(C)(C)C | 38.6 | 34.5 | 36.9 | 33.1 | 34.6 | 33.8 | 19.3 | 41.4 | 34.9 | 35.4 | 57.5 | 34 | 55.7 | 29.5 | 36 | 34.1 | 34.3 | 35.4 | 34.5 | 30.5
Nc1n[nH]c2c(C(=O)Nc3ccc(Cl)cc3)c(N)n(N)c(=O)c12 | > 100 | > 100 | > 100 | > 100 | > 100 | > 100 | > 100 | > 100 | > 100 | > 100 | > 100 | > 100 | > 100 | > 100 | > 100 | > 100 | > 100 | > 100 | > 100 | > 100
CCCCCCc1cc2cc(-c3cn4c(n3)sc3ccccc34)c(=O)oc2cc1O | > 100 | > 100 | > 100 | > 100 | > 100 | > 100 | > 100 | > 100 | > 100 | > 100 | > 72.1 | > 100 | > 100 | > 100 | > 100 | > 100 | > 100 | > 100 | > 100 | > 100
COc1cccc(/C=C2\SC(=S)N(/C=C3\C(=O)Oc4ccccc4C3=O)C2=O)c1O | > 100 | > 100 | 95.7 | > 100 | 75.6 | > 100 | > 100 | 80.3 | > 100 | > 100 | 82.3 | > 100 | > 100 | > 100 | > 100 | 83.2 | > 100 | 55.6 | > 100 | > 100
Clc1cc(OCc2nn3c(Cc4ccccc4)nnc3s2)c(Cl)cc1OCc1nn2c(Cc3ccccc3)nnc2s1 | > 100 | > 100 | > 100 | > 100 | > 100 | > 100 | 75.4 | 30.1 | > 100 | > 100 | > 100 | > 100 | 82.1 | > 100 | > 100 | > 100 | > 100 | 95.9 | > 100 | > 100
CC(=O)O[C@H]1CC[C@H]2[C@@H]3CCC4=C/C(=N/OCCN(C)C)CC[C@]4(C)[C@H]3CC[C@]12C | 11 | 33.7 | 26.7 | 26.9 | 6.42 | 18.9 | 27.8 | 6.27 | 15.7 | 23.9 | 34.1 | 8.18 | 24.6 | 9.62 | 27.5 | 7.28 | 12.8 | 27.2 | 25.6 | 31
O=C(OCc1ccccc1)c1ccc(NCc2cc(O)ccc2O)cc1 | 3.14 | 2.78 | 2.38 | 5.23 | 3.9 | 3.62 | 2.4 | > 100 | 7.69 | 3.93 | 5.43 | 2.88 | 11.2 | 2.87 | 2.99 | 2.27 | 2.42 | 2.19 | 3.73 | 13.5
COc1ccc(C(OCC2OC3(COC(c4ccccc4)(c4ccc(OC)cc4)c4ccc(OC)cc4)C(Oc4nc(=O)ccn43)C2O)(c2ccccc2)c2ccc(OC)cc2)cc1 (stereo not given) | > 100 | > 100 | > 100 | > 100 | > 100 | > 100 | > 100 | > 100 | > 100 | > 100 | 51.8 | > 100 | > 100 | > 100 | > 100 | > 100 | > 100 | > 100 | > 100 | > 100
C/C(O)=C(\C=NC(=S)c1cccnc1)C(=O)Nc1ccccc1C | > 100 | > 100 | > 100 | > 100 | > 100 | > 100 | > 100 | > 100 | > 100 | > 100 | > 100 | > 100 | > 100 | > 100 | > 100 | > 100 | > 100 | > 100 | > 100 | > 100
O=c1oc2ccccc2c(O)c1C(c1cccc(C(c2c(O)c3ccccc3oc2=O)c2c(O)c3ccccc3oc2=O)c1)c1c(O)c2ccccc2oc1=O | 60.2 | 83 | > 100 | > 100 | > 100 | > 100 | > 100 | 76.6 | > 100 | > 100 | > 100 | > 100 | > 100 | 95.7 | > 100 | 53.9 | > 100 | > 100 | > 100 | > 100
COc1ccc(-c2c(-c3ccccc3)c(C)nc3[nH]c(=S)[nH]c(=S)c23)cc1OC | > 100 | 83.3 | 40.2 | 48.1 | 74.1 | 42.7 | > 100 | > 100 | > 100 | > 100 | > 100 | 72.1 | > 100 | > 100 | > 100 | 50.8 | > 100 | > 100 | > 100 | > 100
CN1C(=O)[C@H](c2c[nH]c3ccccc23)[C@H](c2c[nH]c3ccccc23)C1=O | 37.8 | > 100 | > 56.5 | > 55.2 | > 77.6 | > 100 | > 90.6 | > 66.9 | 97.6 | > 100 | > 86.3 | > 37.9 | > 100 | > 52.5 | > 100 | > 54.3 | > 59.9 | 55.7 | > 65.1 | > 100
CC(=O)N1C(CCc2ccccc2)CC(C)(C=O)C1Cc1ccc(O[Si](C(C)C)(C(C)C)C(C)C)cc1 (stereo not given) | 3.85 | 9.06 | 11.8 | 8.02 | 8.39 | 11.8 | 5.81 | 5.03 | 19.9 | 14.4 | 8.96 | 7.03 | 29.3 | 7.64 | 15.8 | 6.03 | 10.7 | 29.7 | 24.3 | 18.9
Cc1c(NC(=O)CSC(=S)N(C)C)c(=O)n(-c2ccccc2)n1C | > 100 | > 100 | > 100 | > 100 | > 100 | > 100 | > 100 | > 100 | > 100 | > 100 | > 100 | > 100 | > 100 | > 100 | > 100 | > 100 | > 100 | > 100 | > 100 | > 100
CSc1ncc2c(C#N)c3[nH]c4ccccc4n3c(=O)c2n1 | > 100 | > 100 | 45.2 | 33 | 67 | > 100 | 95.5 | 12.3 | > 100 | > 100 | > 100 | 35.1 | > 100 | 25.2 | > 100 | > 100 | 76.4 | > 100 | > 100 | > 100
CCOC(=O)CC(=O)Nc1cccc2sc3ncccc3c(=O)c12 | > 100 | > 100 | > 100 | > 100 | > 100 | > 100 | 35.8 | > 100 | > 100 | > 100 | > 100 | > 100 | > 100 | 40.5 | > 100 | > 100 | > 100 | > 100 | > 100 | > 100
